Positions count from the first letter of the chain named. Read-outs that look alike come from different tables or passages of the source. One block for each molecule: values may come before it.
Key:
MDA-MB-468 = experiment: Test Example 1 in vitro cytotoxic activity (CTG), MDA-MB-468; assay type: cell-based; details: for IC50: Homo sapiens
Experimental: (§1) In this experiment, the ATP content was determined using CTG to reflect the survival condition of the tumor cells. […] The killing effect of the toxin molecule was then assayed according to this condition.
(§2) 1) Cell plating: each of A549, SKBR3 and MDA-MB-468 was digested with pancreatin, resuspended in a culture medium and counted, and 6.33×10^5 cells were added to the medium to make a final volume of 38 mL. 180 μL of the culture medium was plated in a 96-well plate (3903) to obtain a cell density of 3 K/well, and the cells were cultured at 37° C. for 24 h.
(§3) 2 mM solution (10-fold dilution of stock solution in DMSO) was prepared in column 1 of the plate 1, then 10-fold gradient dilution in DMSO was performed in columns 2 to 10. The wells in column 11 were filled with DMSO. 95 μL of corresponding culture medium was added to each well of columns 2 to 11 of the plate 2, and 5 μL of solution was pipetted from columns 2 to 11 of the plate 1 and added to the plate 2. After the solution was mixed well, 20 μL of solution was pipetted and added to the plated cells. Each sample was run in duplicate. The cells were continuously cultured for 5 days.
(§4) 3) CTG assay: the plate was taken out and allowed to equilibrate to room temperature. 90 μL of CTG was added to each well and reacted at room temperature for 10 min away from the light. The luminescence value was read using a microplate reader and IC50 was calculated.

A549 = experiment: Test Example 1 in vitro cytotoxic activity (CTG), A549; assay type: cell-based; details: for IC50: Homo sapiens
Experimental: as §1, §2, §3, §4

SKBR3 = experiment: Test Example 1 in vitro cytotoxic activity (CTG), SKBR3; assay type: cell-based; details: for IC50: Homo sapiens, SK-BR-3, 120 h
Experimental: as §1, §2, §3, §4

[1] = molecular target: T1, CD79B protein on the surface of DoHH2 cells (Homo sapiens, UniProt P40259); experiment: FACS of purified anti-human CD79B mouse monoclonal antibodies on DoHH2 cells; assay type: binding; details: for FACS binding force: antibodies diluted 1:10 from 100 nM, FIGS. 9A, 9B; for FACS binding force compared with SN8: positive control antibody SN8
T1 construct: endogenous in cells; host or cells: DoHH2 (DOHH-2) cells
T1 sequence (P40259 29-229): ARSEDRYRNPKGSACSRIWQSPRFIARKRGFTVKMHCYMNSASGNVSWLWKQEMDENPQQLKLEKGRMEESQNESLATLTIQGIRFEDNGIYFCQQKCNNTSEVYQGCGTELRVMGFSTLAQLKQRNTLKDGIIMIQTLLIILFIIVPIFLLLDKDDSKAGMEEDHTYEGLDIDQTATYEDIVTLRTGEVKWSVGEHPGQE
T1 sequence (P11912 33-226 partner): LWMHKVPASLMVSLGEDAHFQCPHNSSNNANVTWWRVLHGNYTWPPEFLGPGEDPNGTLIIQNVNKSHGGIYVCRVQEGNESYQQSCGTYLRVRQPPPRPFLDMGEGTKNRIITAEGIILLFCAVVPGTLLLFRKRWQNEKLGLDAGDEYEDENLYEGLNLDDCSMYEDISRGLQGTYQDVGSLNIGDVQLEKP
Experimental: 3) Assay on anti-human CD79B mouse monoclonal antibodies by FACS The cell suspension of DoHH2 cells was centrifuged, resuspended in PBS containing 0.1% BSA, and counted. 100 μL of antibody diluted in a 1:10 ratio from 100 nM was added, and the cells were incubated at room temperature for 1 h and washed three times. Then Anti-Mouse IgG (Fc specific)-FITC secondary antibody was added, and the cells were incubated at room temperature for 30 min away from the light, washed three times, gently resuspended in PBS containing 0.1% BSA, and loaded on the machine for assay. […] The specific data are shown in FIGS. 9A and 9B, in which hIgG1 is a negative control antibody and SN8 is a positive control antibody. SN8 is an antibody (reference sequence source: US20170362318A) used in the antibody-drug conjugate polatuzumab vedotin developed by Roche pharmaceutical. Polatuzumab vedotin has been approved by the FDA for marketing.

human CD79B [2] = molecular target: T2, human CD79B (Homo sapiens, UniProt P40259); experiment: ELISA of anti-human CD79B hybridoma positive clones; assay type: binding; set-up: the extracellular region (ECD) of human CD79B comprises 159 amino acids (Met1-Asp159); made in house; host or cells: 293F cells; details: hybridoma cell supernatant, read at 450 nm
T2 sequence (P40259 29-159 limits assumed): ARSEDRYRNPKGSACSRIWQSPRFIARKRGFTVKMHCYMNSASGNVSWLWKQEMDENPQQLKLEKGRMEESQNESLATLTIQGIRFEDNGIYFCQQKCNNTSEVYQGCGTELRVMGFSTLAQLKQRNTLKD
Experimental: (§5) 3) ELISA screening A 96-well plate was coated with 1 μg/mL antigen at 50 μL/well and incubated in a refrigerator at 4° C. overnight. The next day, the coated antigen plate was washed once (washing solution: 1×PBST). After washing, the plate was blocked with 1% BSA blocking solution prepared in 1×PBST at 37° C. for 1 h. After washing the plate 3 times with 1×PBST, 50 μL of the test cell supernatant was added, and the plate was incubated in an incubator at 37° C. for 1 h. After washing the plate 3 times with 1×PBST, 100 μL of goat anti-mouse secondary antibody diluted in a 1:5000 ratio was added, and the plate was incubated in an incubator at 37° C. for 0.5 h. After washing the plate, TMB color development solutions A and B were mixed in a 1:1 ratio for color development. 15 min later, the color development reaction was stopped with 1 N hydrochloric acid. […] value was read at 450 nm on a Spectra Max M5 microplate reader.
(§6) 5) Identification of hybridoma positive clones A plurality of specific antibodies against human CD79B antigen were obtained; and 17 strains of hybridomas having strongest binding force to ELISA and FACS in assays were taken for production and purification of antibodies. Specific antibodies against monkey CD79B antigen were also obtained; and 4 strains of hybridomas having strongest binding force to ELISA and FACS in assays were taken for production and purification of antibodies. Assay results of anti-monkey CD79B hybridoma positive clone cells by FACS are shown in Table 4. mIgG was used as negative control in the both assays.

human CD79B [3] = molecular target: T2, human CD79B; experiment: ELISA of purified anti-human CD79B mouse monoclonal antibodies; assay type: binding; set-up: the extracellular region (ECD) of human CD79B comprises 159 amino acids (Met1-Asp159); made in house; host or cells: 293F cells; details: purified antibodies diluted 1:10 from 100 nM; FIG. 8
Experimental: as §5, with “2) Assay on anti-human CD79B mouse monoclonal antibodies by” for “3)”, “ELISA” for “ELISA screening”, “antibody diluted in a 1:10 ratio from 100 nM” for “the test cell supernatant”

[4] = molecular target: T1, CD79B protein on the surface of DoHH2 cells; experiment: FACS of anti-human CD79B hybridoma positive clones; assay type: binding
Experimental: 4) FACS screening The suspension of DoHH2 cells was centrifuged, resuspended in PBS containing 0.1% BSA, and counted. The test serum was added, and the cells were incubated at room temperature for 60 min and washed. Then Anti-Mouse IgG (Fc specific)-FITC secondary antibody was added, and the cells were incubated at room temperature for 30 min away from the light, washed three times, gently resuspended in PBS containing 0.1% BSA, and loaded on the machine for assay.
as §6

Molecule: C=C1C[C@@H]2CC[C@@]34C[C@H]5O[C@H]6[C@@H](O3)[C@H]3O[C@H](CC[C@@H]3O[C@H]6[C@H]5O4)CC(=O)C[C@@H]3[C@@H](OC)[C@@H](C[C@@H](CN)OC)O[C@H]3C[C@H]3O[C@@H](CC[C@@H]1O2)C[C@@H](C)C3=C [D-1]
- IC50 (MDA-MB-468; MDA-MB-468, 120 h): 0.183 nM
- Maximum inhibition (%) (MDA-MB-468; MDA-MB-468, 5 days, CTG): 88.01%
- Maximum inhibition (%) (A549; A549, 5 days, CTG): 81.34%
- IC50 (A549; A549, 120 h): 0.515 nM
- IC50 (SKBR3): 0.205 nM
- Maximum inhibition (%) (SKBR3; SKBR3, 5 days, CTG): 96.87%
- killing effect compared with eribulin (SKBR3; three tumor cell lines SKBR3, MDA-MB-468 and A549): good killing effect in three tumor cell lines and is significantly superior to the positive drug eribulin

Molecule: C=C1C[C@@H]2CC[C@@]34C[C@H]5O[C@H]6[C@@H](O3)[C@H]3O[C@H](CC[C@@H]3O[C@H]6[C@H]5O4)CC(=O)C[C@@H]3[C@@H](OC)[C@@H](C[C@H](O)CN)O[C@H]3C[C@H]3O[C@@H](CC[C@@H]1O2)C[C@@H](C)C3=C [Eribulin, reference compound]
- IC50 (MDA-MB-468; 120 h, MDA-MB-468, 5 days, CTG, read-out: IC50): 0.482 nM
- IC50 (A549; 120 h, A549, 5 days, CTG, read-out: IC50): 0.661 nM
- IC50 (SKBR3; SKBR3, 5 days, CTG, read-out: IC50): 0.715 nM

- FACS binding force [1]: strongest FACS binding force
- FACS binding force compared with SN8 [1]: superior binding force to SN8
- Results (OD450) (human CD79B [2]): 3.46
- ELISA binding force (human CD79B [3]): strongest ELISA binding force
- Mean fluorescence value [4]: 9990
B1: mAb016: anti-human CD79B mouse monoclonal antibody, hybridoma clone 83C2D4 (antibody, V domains shown)
VH: QVQLQQSGAELARPGASVKLSCKASGYIFTNYGIIWVKQRTGQGLEWIGDIFPGSGNTYYNENFKGKATLTADKSSSTAYMELRSLTSEDSAVYFCSRGELGDFDYWGQGTTLTVSS
VL: VVLMTQTPLSLPVSLGDQASISCRSSQNIVHSDGTTYLEWYLQKPGQSPKLLIYKVSNRFSGVPDRFSGSGSGTDFTLKISRVEAEDLGIYYCFQGSHVPWTFGGGTKLEIK

- FACS binding force [1]: strongest FACS binding force
- FACS binding force compared with SN8 [1]: superior binding force to SN8
- Results (OD450) (human CD79B [2]): 3.80
- ELISA binding force (human CD79B [3]): strongest ELISA binding force
- Mean fluorescence value [4]: 8132
B2: mAb017: anti-human CD79B mouse monoclonal antibody, clone 86F11F6; VH SEQ ID NO: 5, VL SEQ ID NO: 6 (antibody, listed as Mus musculus, V domains shown)
VH: QVQLQQSGAELARPGASVKLSCKASGYTFTTYGINWVKQRTGQGLEWIGEIYPRSGNIYYNEKFKGKATLTADKSSSTAYMELRSLTSEDSAVYFCARGSDYDGDFAYWGQGTLVTVSA
VL: B1 VL with V1D, N28S, S32H, T35N, I90V, K108Q

Reference: patent US12642862B2, “Anti-CD79B antibody-drug conjugate, and preparation method therefor and pharmaceutical use thereof” (TUOJIE BIOTECH (SHANGHAI) CO., LTD., priority 2020, dated 2026)
